1 molecule from patent US20150119400A1, “METHODS FOR TREATING HCV” (priority 2013, published 2015) can be followed below.

Structures are written as SMILES. Read-outs that look alike come from different tables or passages of the source.

The test system of assay [1] is GT1b subgenomic replicon NS3 variants. Briefly: Resistant colony selection and variant susceptibility, GT1b subgenomic replicon cells. Type of assay: cell-based, Hepatitis C virus. The conditions noted are these: A156V in GT1b. The source says:
(§1) The inhibitory effects of the compounds of the invention on HCV replication can also be determined by measuring activity of the luciferase reporter gene encoded by subgenomic replicons not containing the Neo selectable marker, that are transiently expressed in cells. The adaptive mutations encoded by the 1a-H77, 1b-N and 1b-Con-1 replicons are the same as listed above. The 1b-Con1 replicon used for these transient assays contains the NS2-NS5B coding region rather than the NS3-5B coding region. These replicons may encode target NS3 genes as described for stable subgenomic replicons or they may encode amino acid variants that confer varying degrees of susceptibility to the drug. For example, variants could include R155K, D168E or D168V in a genotype 1a NS3 gene; R155K or D168V in a genotype 1b NS3 gene; S138T, A166T or Q168R in a genotype 3a NS3 gene. For example, cells can be transfected with the replicon by electroporation and seeded into 96 well plates at a density of 5000 cells per well in 100 μl DMEM containing 5% FBS. […] Luciferin solution (100 μl, Promega) can be added to each well, and luciferase activity can be measured with a luminometer. The percent inhibition of HCV RNA replication can be calculated for each compound concentration and the EC50 value can be calculated using nonlinear regression curve fitting to the 4-parameter logistic equation and GraphPad Prism 4 software. […]
Background: A replicon is a self-replicating genome or part of one, used to study replication in cells.

Assay [2] relates to HCV stable subgenomic replicons containing NS3 genes from GT 1a, 1b, 2a, 3a, 4a, or 6a. Briefly: HCV stable subgenomic replicon panel, summary statements over several genotypes. The format is cell-based. The conditions noted are these: Hepatitis C virus.
Assay [3] has as its system replicon containing GT3a NS3 protease, variants. Description: Resistant colony selection and variant susceptibility, replicon containing GT3a NS3 protease. The format is cell-based, Hepatitis C virus. The text has this: The inhibitory effects of the compounds of the invention on HCV replication can also be determined by measuring activity of the luciferase reporter gene encoded by subgenomic replicons not containing the Neo selectable marker, that are transiently expressed in cells. The adaptive mutations encoded by the 1a-H77, 1b-N and 1b-Con-1 replicons are the same as listed above. The 1b-Con1 replicon used for these transient assays contains the NS2-NS5B coding region rather than the NS3-5B coding region. These replicons may encode target NS3 genes as described for stable subgenomic replicons or they may encode amino acid variants that confer varying degrees of susceptibility to the drug. For example, variants could include R155K, D168E or D168V in a genotype 1a NS3 gene; R155K or D168V in a genotype 1b NS3 gene; S138T, A166T or Q168R in a genotype 3a NS3 gene. For example, cells can be transfected with the replicon by electroporation and seeded into 96 well plates at a density of 5000 cells per well in 100 μl DMEM containing 5% FBS. Compounds diluted in dimethyl sulfoxide (DMSO) to generate a 200× stock in a series of eight half-log dilutions can then be further diluted 100-fold in the medium containing 5% FBS and added to the cell culture plates already containing 100 μl of DMEM with 5% FBS. After an incubation period of either 3 or 4 days, 30 μl of Passive Lysis buffer (Promega) can be added to each well, with incubation for 15 minutes with rocking to lyse the cells. Luciferin solution (100 μl, Promega) can be added to each well, and luciferase activity can be measured with a luminometer. The percent inhibition of HCV RNA replication can be calculated for each compound concentration and the EC50 value can be calculated using nonlinear regression curve fitting to the 4-parameter logistic equation and GraphPad Prism 4 software.
Resistant colony selection studies in GT1a and 1b subgenomic replicon cells identified A156T in GT1a and A156V in GT1b as the most frequent variants, which conferred 1400- and 1800-fold reduced susceptibility to Compound 1, respectively. […]

The subject of assay [4] is HCV genotype 6a replicon. Briefly: HCV subgenomic stable replicon cell culture assay (luciferase), genotype 6a. As to conditions: Hepatitis C virus; bound stated in description, plasma not stated; read-out: EC50 value against HCV genotype 6a. The format is cell-based.
For assay [5], the system named is GT1a subgenomic replicon NS3 variants. Briefly: Resistant colony selection and variant susceptibility, GT1a subgenomic replicon cells. Type of assay: cell-based, Hepatitis C virus. As to conditions: A156T in GT1a.
From the text: as §1

By EC50 is commonly meant the concentration that produces a half-maximal response. Turning to `CC(C)(C)[C@@H]1NC(=O)O[C@@H]2CCC[C@H]2OC/C=C/C(F)(F)c2nc3ccccc3nc2O[C@@H]2C[C@@H](C(=O)N[C@]3(C(=O)NS(=O)(=O)C4(C)CC4)C[C@H]3C(F)F)N(C2)C1=O` [Compound 1], the entries for the “fold reduced susceptibility conferred by variant” value in assay [1] and in assay [5] were 1800 fold and 1400 fold, respectively. The EC50 in assay [2] (bound stated for all six genotypes, read-out: EC50 value against HCV genotype 1a, 1b, 2a, 3a, 4a, and 6a) was under 3 nM; in assay [2] (genotype 1a and 1b, 0% Human Plasma, 5% FBS, read-out: mean EC50 values, range over genotype 1a and 1b replicons), 0.85 to 0.94 nM; in assay [2] (genotype 1a and 1b, 40% Human Plasma, 5% FBS, read-out: mean EC50 values, range over genotype 1a and 1b replicons) it was 5 to 10 nM; in assay [2] (genotype 2a, 3a, 4a, 6a, 0% Human Plasma, 5% FBS, read-out: mean EC50 values, range over genotype 2a, 3a, 4a, and 6a replicons) it was 0.86 to 2.8 nM; in assay [4], under 1 nM. Also, the “fold loss in susceptibility conferred by variant” value in assay [3] (A156G alone) is given as 1500 fold; in assay [3] (Q168R co-selected with Y56H), 1100 fold. In assay [3] (concentrations ≧100-fold over its EC50 value), the resistant colonies selected result is reported as “very few colonies”.
